From ChEMBL document CHEMBL2034878, “Chiral resolution, absolute configuration assignment and biological activity of racemic diarylpyrimidine CH(OH)-DAPY as potent nonnucleoside HIV-1 reverse transcriptase inhibitors” (Eur J Med Chem, 2012)

Legend:
[1] = system: Human immunodeficiency virus 1; experiment: Antiviral activity against HIV1 RES056 harboring K103N/Y181C RT mutant infected in MT4 cells assessed as inhibition of virus-induced cytopathic effect after 5 days by MTT assay; format: functional, organism-based; conditions: Human immunodeficiency virus 1, RES056, MT4, 120 h
[2] = Selectivity index ratio of CC50 for human MT4 cells to EC50 for HIV1 3B; format: toxicity, cell-based; conditions: read-out: Ratio CC50/EC50
[3] = system: Human immunodeficiency virus 2; experiment: Antiviral activity against HIV2 ROD […] infected in MT4 cells assessed as inhibition of virus-induced cytopathic effect after 5 days by MTT assay; format: functional, organism-based; conditions: Human immunodeficiency virus 2, ISOLATE ROD, MT4, 120 h
[4] = system: Human immunodeficiency virus 1; experiment: Antiviral activity against HIV1 3B harboring wild type RT infected in MT4 cells assessed as inhibition of virus-induced cytopathic effect after 5 days by MTT assay; format: functional, organism-based; conditions: Human immunodeficiency virus 1, 3B, MT4, 120 h
[5] = Cytotoxicity against human MT4 cells after 5 days by MTT assay; format: cell-based
[6] = molecular target: Human immunodeficiency virus type 1 reverse transcriptase (Human immunodeficiency virus 1, UniProt Q72547); experiment: Inhibition of HIV1 wildtype reverse transcriptase using poly(rA)/oligo(dT)15 as template by colometric streptavidin alkaline phosphate reporter assay

| SMILES | EC50 [1] [µM] | selectivity ratio [2] | EC50 [3] [µM] | EC50 [4] [µM] | CC50 at 120 h [5] [µM] | IC50 [6] [µM] |
| --- | --- | --- | --- | --- | --- | --- |
| N#Cc1ccc(Nc2nccc([C@H](O)c3ccccc3Cl)n2)cc1 | > 36 | 6800 | > 36 | 0.005 | 36 | – |
| N#Cc1ccc(Nc2nccc([C@@H](O)c3ccccc3Cl)n2)cc1 | 8.8 | 373 | 11 | 0.065 | 25 | – |
| N#Cc1ccc(Nc2nccc(C(O)c3ccccc3Cl)n2)cc1 (racemic) | 9.4 | 3230 | 7.6 | – | 29 | 0.45 |
| CC(C)Nc1cccnc1N1CCN(C(=O)c2cc3cc(NS(C)(=O)=O)ccc3[nH]2)CC1 [DELAVIRDINE] | > 4.39 | > 274 | – | – | > 4.4 | – |
| O=C1Nc2ccc(Cl)cc2[C@@](C#CC2CC2)(C(F)(F)F)O1 [EFAVIRENZ] | 0.44 | – | – | – | > 6.3 | – |
| Cc1cc(C#N)cc(C)c1Oc1nc(Nc2ccc(C#N)cc2)nc(N)c1Br [ETRAVIRINE] | – | – | > 28 | 0.002 | 28 | – |
| Cc1ccnc2c1NC(=O)c1cccnc1N2C1CC1 [NEVIRAPINE] | – | – | > 15 | – | > 15 | – |
| Cc1cn([C@H]2C[C@H](N=[N+]=[N-])[C@@H](CO)O2)c(=O)[nH]c1=O [ZIDOVUDINE] | – | ≥ 6360 | 0.007 | – | ≥ 46 | – |
